Counter-ions that a name gives are not always drawn.
Columns and labels:
[1] = Cytotoxicity assay CellTiter-Blue, HeLa; type: cell-based; conditions: human; HeLa cells, 4 to 8 days; mean ± SEM, three experiments
Method: (§1) Cytotoxicity assays. Cytotoxicity was measured with CellTiter-Blue® Cell Viability Assay according to the manufacturer's protocol (Promega). Two cell lines, MT-4 and HeLa, were used in this assay. Cells were incubated with serial dilution of compounds at 37° C. for 4 to 8 days and subjected to CellTiter-Blue Reagent. The fluorescent signal was measured at 560 nm Ex/590 nm Em by a plate reader (TECAN, Infinite® M1000 PRO). The 50% cytotoxic concentrations (CC50s) were defined as compound concentrations at which the fluorescent signals were reduced by 50%/relative to the no-inhibitor (DMSO only) controls using GraphPad Prism 6 software and are reported in Table 1.

WT pNL4-3 in MT-4 cells = experiment: Antiviral assay in MT-4 cells (RT readout), WT NL4-3; type: cell-based, HIV-1; conditions: Human immunodeficiency virus 1, NL43, MT4, 96 h, read-out: Antiviral Assay IC50 (nM) NL4-3
Method: Cell culture, plasmids and transfections. The MT-4 T-cell line was maintained in RPMI-1640 medium supplemented with 10% (vol/vol) fetal bovine serum (FBS), 2 mM glutamine, 100 U/mL penicillin and 100 μg/mL streptomycin at 37° C. in a humidified 5% CO2 atmosphere. HeLa and 293T cells were maintained in Dulbecco's modified Eagle's medium (DMEM) supplemented with 5% (vol/vol) FBS, 2 mM glutamine, 100 U/mL penicillin and 100 μg/mL streptomycin. Molecular clones used in this study were WT pNL4-3 and the derivative encoding a Val-to-Ala mutation at SP1 residue 7, referred to as SP1-V7A. The MT-4 T-cell line was transfected the DEAE/dextran procedure; HeLa and 293T cells were transfected with linear polyethylenimine (L-PEI) or Lipofectamine 2000 (Invitrogen) as recommended by the supplier.
Antiviral assays. To produce HIV-1 stocks, 293T cells were transfected with WT pNL4-3 or the SP1-V7A derivative and culture supernatants were collected 24 h post transfection. RT-normalized virus supernatants were used to infect MT-4 cells at room temperature for 30 min. Cells were then cultured in the presence of serial dilutions of compounds. […] The IC50s in primary peripheral blood mononuclear cells (PBMCs) were calculated with a multi-clade panel of HIV-1 isolates by Southern Research Institute (Frederick, Md.). […]

[2] = Cytotoxicity assay CellTiter-Blue, MT-4; type: cell-based; conditions: human; MT-4 cells, 4 to 8 days; mean ± SEM, three experiments
Method: as §1

C=C(C)[C@@H]1CC[C@]2(CCNC3CCN(CCO)CC3)CC[C@]3(C)[C@H](CC[C@@H]4[C@@]5(C)CC[C@H](OC(=O)CC(C)(C)CC(=O)O)C(C)(C)[C@@H]5CC[C@]43C)[C@@H]12 [Compound 51f, (3β)-17-[2-[[1-(2-Hydroxyethyl)piperidin-4-yl]amino]ethyl]-28-norlup-20(29)-en-3-ol, 3-(Hydrogen 3,3-Dimethylpentanedioate), Bis(trifluoroacetate) Salt]
CC50 [1]: > 1000 nM
IC50 (WT pNL4-3 in MT-4 cells): 21 ± 19 nM
CC50 [2]: 366 ± 44 nM

Source: patent US11236122B2, “Triterpene amine derivatives” (DFH THERAPEUTICS, priority 2018, dated 2022)
